Reference: US20240059703A1 (AMGEN INC., priority 2021, published 2024)

These molecules were tested against KRAS G12C (Homo sapiens (Human), UniProt P01116, C118A/G12C) (assay: 2 h coupled exchange assay). Settings: Avg 2 h Coupled exchange IC50, 2 h compound pre-incubation.
Assay type: biochemical
Description: The term “2 h coupled exchange assay” or “20 h coupled exchange assay” as used herein refers to the assay described in the Section entitled “BIOLOGICAL EVALUATION.”

KRAS G12C, sequence (P01116 other isoform, or with tags, fused parts or gaps G12C/C118A): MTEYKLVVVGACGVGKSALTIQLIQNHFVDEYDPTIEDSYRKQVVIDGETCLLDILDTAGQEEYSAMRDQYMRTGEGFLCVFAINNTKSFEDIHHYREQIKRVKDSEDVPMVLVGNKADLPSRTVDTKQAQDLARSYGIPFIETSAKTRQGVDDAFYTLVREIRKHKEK

IC50	Structure (SMILES)
245 nM	C=CC(=O)N1CC2(CCN(c3nc4cc(-c5cncnc5)ccc4c(-c4ccc(F)cc4F)c3C#N)C2)C1 [Example 20-12, 4-(2,4-difluorophenyl)-2-(2-(2-propenoyl)-2,6-diazaspiro[3.4]octan-6-yl)-7-(5-pyrimidinyl)-3-quinolinecarbonitrile]
368 nM	C=CC(=O)N1CC2(CCN(c3nc4cc(-c5ccnn5C)ccc4c(-c4cc(O)cc(F)c4F)c3C)C2)C1 [Example 16-13, 1-(6-(4-(2,3-difluoro-5-hydroxyphenyl)-3-methyl-7-(1-methyl-1H-pyrazol-5-yl)-2-quinolinyl)-2,6-diazaspiro[3.4]octan-2-yl)-2-propen-1-one]
659 nM	C=CC(=O)N1CC2(CCN(c3nc4c(c(-c5[nH]c(=O)cc6ccccc56)c3C#N)CCC(C)(C)C4)C2)C1 [Example 33-2, 7,7-dimethyl-4-(3-oxo-2,3-dihydro-1-isoquinolinyl)-2-(2-(2-propenoyl)-2,6-diazaspiro[3.4]octan-6-yl)-5,6,7,8-tetrahydro-3-quinolinecarbonitrile]
46 nM	C=CC(=O)N1CC2(CCN(c3nc4c(c(-c5ccc(F)c6sc(N)c(C#N)c56)c3C)COC(C)(C)C4)C2)C1 [Example 14-106, 2-amino-7-fluoro-4-(3,7,7-trimethyl-2-(2-(2-propenoyl)-2,6-diazaspiro[3.4]octan-6-yl)-7,8-dihydro-5H-pyrano[4,3-b]pyridin-4-yl)-1-benzothiophene-3-carbonitrile]
226 nM	[2H]C([2H])([2H])n1ncc2ccc(C)c(-c3c(C)c(N4CCC5(CN(C(=O)C=C)C5)C4)nc4c3COC(C)(C)C4)c21 [Example 14-36, 1-(6-(3,7,7-trimethyl-4-(6-methyl-1-(^2H3)methyl-1H-indazol-7-yl)-7,8-dihydro-5H-pyrano[4,3-b]pyridin-2-yl)-2,6-diazaspiro[3.4]octan-2-yl)-2-propen-1-one]
357 nM	C=CC(=O)N1CC2(CCN(c3nc4c(c(-c5ccc(F)c6sc(N)nc56)c3C#N)COC(C)(C)C4)C2)C1 (single isomer, unassigned) [Example 14-58, (M)-4-(2-amino-7-fluoro-1,3-benzothiazol-4-yl)-7,7-dimethyl-2-(2-(2-propenoyl)-2,6-diazaspiro[3.4]octan-6-yl)-7,8-dihydro-5H-pyrano[4,3-b]pyridine-3-carbonitrile]
571 nM	C=CC(=O)N1CC2(CCN(c3nc4cc(-c5ccn[nH]5)ccc4c(-c4ccccc4Cl)c3C#N)C2)C1 [Example 17-8, 4-(2-chlorophenyl)-2-(2-(2-propenoyl)-2,6-diazaspiro[3.4]octan-6-yl)-7-(1H-pyrazol-3-yl)-3-quinolinecarbonitrile]
3580 nM	C=CC(=O)N1CC2(CCN(c3nc4cc(-n5ccnc5C)ccc4c(-c4ccccc4Cl)c3C)[C@H]2C)C1 (single isomer, unassigned) [Example 15-6]
702 nM	C=CC(=O)N1CC2(CCN(c3nc4cc(-c5ccnn5C)ccc4c(-c4c(C)cccc4F)c3C)C2)C1 [Example 16-8, 1-(6-(4-(2-fluoro-6-methylphenyl)-3-methyl-7-(1-methyl-1H-pyrazol-5-yl)-2-quinolinyl)-2,6-diazaspiro[3.4]octan-2-yl)-2-propen-1-one]
432 nM	C=CC(=O)N1CC2(CCN(c3nc4c(c(-c5c(C)ccc6cnn(C(F)F)c56)c3C#N)COC(C)(C)C4)C2)C1 [Example 14-83, 4-(1-(difluoromethyl)-6-methyl-1H-indazol-7-yl)-7,7-dimethyl-2-(2-(2-propenoyl)-2,6-diazaspiro[3.4]octan-6-yl)-7,8-dihydro-5H-pyrano[4,3-b]pyridine-3-carbonitrile]

Same assay, conditions: Avg 2 h Coupled exchange IC50, 2 h compound pre-incubation, SOS-mediated nucleotide exchange

IC50	Structure (SMILES)
250000 nM	C=CC(=O)N1CC2(CCN(c3nc4c(c(-c5c(C)ccc6cnn(C)c56)c3C#N)[C@@H]3CC[C@H]4C3)C2)C1 (single isomer, unassigned) [Example 14-16]
252 nM	C=CC(=O)N1CC2(CCN(c3nc4c(c(-c5c(Cl)ccc6cc[nH]c56)c3C#N)COC(C)(C)C4)C2)C1 [Example 12-13, 4-(6-chloro-1H-indol-7-yl)-7,7-dimethyl-2-(2-(2-propenoyl)-2,6-diazaspiro[3.4]octan-6-yl)-7,8-dihydro-5H-pyrano[4,3-b]pyridine-3-carbonitrile]
131000 nM	C=CC(=O)N1CC2(CCN(c3nc4c(c(-c5cc(O)cc6cccnc56)c3C#N)C[C@H]3C[C@@H]4C3(C)C)C2)C1 (single isomer, unassigned) [Example 2-44]
506 nM	C=CC(=O)N1CC2(CCN(c3nc4c(c(-c5c(O)cccc5Cl)c3C#N)C[C@H]3C[C@@H]4C3)C2)C1 (single isomer, unassigned) [Example 13-67]
242 nM	C=CC(=O)N1CC2(CCN(c3nc4c(c(-c5c(Cl)ccc6[nH]ccc56)c3C#N)COC(C)(C)C4)C2)C1 [Example 12-16, 4-(5-chloro-1H-indol-4-yl)-7,7-dimethyl-2-(2-(2-propenoyl)-2,6-diazaspiro[3.4]octan-6-yl)-7,8-dihydro-5H-pyrano[4,3-b]pyridine-3-carbonitrile]
846 nM	C=CC(=O)N1CC2(CCN(c3nc4c(c(-c5cc(O)cc(C(F)(F)F)c5F)c3C)CCC(C)(C)C4)C2)C1 [Example 2-22, 1-(6-(4-(2-fluoro-5-hydroxy-3-(trifluoromethyl)phenyl)-3,7,7-trimethyl-5,6,7,8-tetrahydro-2-quinolinyl)-2,6-diazaspiro[3.4]octan-2-yl)-2-propen-1-one]
842 nM	C=CC(=O)N1CC2(CCN(c3nc4c(c(-c5c(C)ccc6cnn(C)c56)c3C#N)CO[C@H](C)C4)C2)C1 [Example 13-141, (7)-2-(2-acryloyl-2,6-diazaspiro[3.4]octan-6-yl)-4-(1,6-dimethyl-1H-indazol-7-yl)-7-methyl-7,8-dihydro-5H-pyrano[4,3-b]pyridine-3-carbonitrile]
4730 nM	C=CC(=O)N1CC2(CCN(c3nc4c(c(-c5c(C)ccc6cnn(C)c56)c3Cl)COC(C)(C)C4)C2)C1 (single isomer, unassigned) [Example 2-88, (P)-1-(6-(3-chloro-4-(1,6-dimethyl-1H-indazol-7-yl)-7,7-dimethyl-7,8-dihydro-5H-pyrano[4,3-b]pyridin-2-yl)-2,6-diazaspiro[3.4]octan-2-yl)-2-propen-1-one]
27000 nM	C=CC(=O)N1CC2(CCN(c3nc4c(c(-c5cc(O)cc6ccccc56)c3C#N)CC(C)(C)C4)C2)C1 (single isomer, unassigned) [Example 13-68, (M)-4-(3-hydroxy-1 naphthalenyl)-6,6-dimethyl-2-(2-(2-propenoyl)-2,6-diazaspiro[3.4]octan-6-yl)-6,7-dihydro-5H-cyclopenta[b]pyridine-3-carbonitrile]
234 nM	C=CC(=O)N1CC2(CCN(c3nc4c(c(-c5cc(O)cc(F)c5F)c3C)CCC(C)(C)C4)C2)C1 [Example 2-26, 1-(6-(4-(2,3-difluoro-5-hydroxyphenyl)-3,7,7-trimethyl-5,6,7,8-tetrahydro-2-quinolinyl)-2,6-diazaspiro[3.4]octan-2-yl)-2-propen-1-one]
9010 nM	C=CC(=O)N1CC2(CCN(c3nc(-c4c(C)ccc5[nH]ncc45)c4ccc(C)cc4n3)C2)C1 [Example 1-40, 1-(6-(7-methyl-4-(5-methyl-1H-indazol-4-yl)-2-quinazolinyl)-2,6-diazaspiro[3.4]octan-2-yl)-2-propen-1-one]

What follows are molecules tested on MIA PaCa-2 (human pancreatic carcinoma) cells (assay: Cell Viability Assay (CellTiter-Glo), MIA PaCa-2). Settings: Homo sapiens, MIA PaCa-2, 72 h.
Assay type: cell-based
Description: (§1) Serially-diluted compound or DMSO was added to the cells, and plates were incubated at 37° C., 5% CO2 for 72 h. Cell viability was measured using a CellTiter-Glo® Luminescent Cell Viability Assay kit (Promega) according to the manufacturer's protocol. The luminescence signal of treated samples was normalized to DMSO control, and data were analyzed using a 4-parameter logistic model to calculate IC50 values.

IC50	Structure (SMILES)
2060 nM	C=CC(=O)N1CC2(CCN(c3nc4cc(-c5cncnc5)ccc4c(-c4ccc(F)cc4F)c3C#N)C2)C1 [Example 20-12, 4-(2,4-difluorophenyl)-2-(2-(2-propenoyl)-2,6-diazaspiro[3.4]octan-6-yl)-7-(5-pyrimidinyl)-3-quinolinecarbonitrile]
14 nM	C=CC(=O)N1CC2(CCN(c3nc4c(c(-c5cc(O)cc6ccccc56)c3Cl)COC(C)(C)C4)C2)C1 (single isomer, unassigned) [Example 2-78, (P)-1-(6-(3-chloro-4-(3-hydroxy-1-naphthalenyl)-7,7-dimethyl-7,8-dihydro-5H-pyrano[4,3-b]pyridin-2-yl)-2,6-diazaspiro[3,4]octan-2-yl)-2-propen-1-one]
39 nM	C=CC(=O)N1CC2(CCN(c3nc4c(c(-c5cc(O)cc6ccccc56)c3F)C[C@H]3C[C@@H]4C3(C)C)C2)C1 [Example 14-1, 1-(6-((1R,9R)-5-fluoro-6-(3-hydroxy-1-naphthalenyl)-10,10-dimethyl-3-azatricyclo[7.1.1.0^2,7]undeca-2,4,6-trien-4-yl)-2,6-diazaspiro[3.4]octan-2-yl)-2-propen-1-one]
26 nM	C=CC(=O)N1CC2(CCN(c3nc4c(c(-c5cc(O)cc6ccccc56)c3Cl)COC(C)(C)C4)C2)C1 [Example 2-76, 1-(6-(3-chloro-4-(3-hydroxy-1-naphthalenyl)-7,7-dimethyl-7,8-dihydro-5H-pyrano[4,3-b]pyridin-2-yl)-2,6-diazaspiro[3.4]octan-2-yl)-2-propen-1-one]

Each molecule was assayed on A549 (human lung carcinoma) cells (assay: Cell Viability Assay (CellTiter-Glo), A549). Settings: Homo sapiens, A549, 72 h.
Assay type: cell-based
Description: as §1, with “MIA PaCa-2 (human pancreatic carcinoma; ATCC CRL-1420) or A549 (human lung carcinoma; ATCC CCL-185) cells were cultured in RPMI 1640 medium containing 10% fetal bovine serum and 1× penicillin/streptomycin/L-glutamine. Cells were seeded in 384-well plates at a density of 1.67E+04 cells/mL and incubated at 37° C., 5% CO2, overnight. Serially-diluted” for “Serially-diluted”

IC50	Structure (SMILES)
> 25000 nM	C=CC(=O)N1CC2(CCN(c3nc4cc(-c5cncnc5)ccc4c(-c4ccc(F)cc4F)c3C#N)C2)C1 [Example 20-12, 4-(2,4-difluorophenyl)-2-(2-(2-propenoyl)-2,6-diazaspiro[3.4]octan-6-yl)-7-(5-pyrimidinyl)-3-quinolinecarbonitrile]
> 5000 nM	C=CC(=O)N1CC2(CCN(c3nc4c(c(-c5cc(O)cc6ccccc56)c3F)C[C@H]3C[C@@H]4C3(C)C)C2)C1 (single isomer, unassigned) [Example 14-77]
> 5000 nM	C=CC(=O)N1CC2(CCN(c3nc4c(c(-c5cc(O)cc6ccccc56)c3Cl)COC(C)(C)C4)C2)C1 (single isomer, unassigned) [Example 2-78, (P)-1-(6-(3-chloro-4-(3-hydroxy-1-naphthalenyl)-7,7-dimethyl-7,8-dihydro-5H-pyrano[4,3-b]pyridin-2-yl)-2,6-diazaspiro[3,4]octan-2-yl)-2-propen-1-one]
> 5000 nM	C=CC(=O)N1CC2(CCN(c3nc4c(c(-c5cc(O)cc6ccccc56)c3F)C[C@H]3C[C@@H]4C3(C)C)C2)C1 [Example 14-1, 1-(6-((1R,9R)-5-fluoro-6-(3-hydroxy-1-naphthalenyl)-10,10-dimethyl-3-azatricyclo[7.1.1.0^2,7]undeca-2,4,6-trien-4-yl)-2,6-diazaspiro[3.4]octan-2-yl)-2-propen-1-one]
> 5000 nM	C=CC(=O)N1CC2(CCN(c3nc4c(c(-c5cc(O)cc6ccccc56)c3Cl)COC(C)(C)C4)C2)C1 [Example 2-76, 1-(6-(3-chloro-4-(3-hydroxy-1-naphthalenyl)-7,7-dimethyl-7,8-dihydro-5H-pyrano[4,3-b]pyridin-2-yl)-2,6-diazaspiro[3.4]octan-2-yl)-2-propen-1-one]
